{
  "source": "patent US20200281932A1",
  "about": "“FORMULATIONS OF COPANLISIB” (Bayer Pharma Aktiengesellschaft, priority 2017, published 2020)",
  "key": {"[1]": {"system": "relapsed or refractory indolent B-cell lymphoma", "experiment": "Copanlisib in patients with relapsed or refractory indolent B-cell lymphoma: tumor response", "format": "in vivo, human", "experimental": "(§1) Methods: Patients with indolent B-cell non-Hodgkin lymphoma (4 subtypes: follicular (FL), marginal zone (MZL), small lymphocytic (SLL) and lymphoplasmacytoid/Waldenström macroglobulinemia (LPL-WM)) and relapsed after, or refractory to, ≥2 prior lines of treatment were eligible. […] Copanlisib (60 mg, I.V.) was intermittently administered on days 1, 8 and 15 of a 28-day cycle. The primary efficacy endpoint was objective tumor response rate (ORR) as assessed per independent radiologic review (Cheson et al., JCO 20:579, 2007)."}, "[2]": {"experiment": "Copanlisib in patients with relapsed or refractory indolent B-cell lymphoma: adverse events", "format": "in vivo, human", "experimental": "as §1"}, "[3]": {"experiment": "Hydrolytic stability of copanlisib in aqueous solutions (HPLC)", "format": "physicochemical", "conditions": "water, buffer pH 7, 0.1 M hydrochloric acid and 0.1 M sodium hydroxide solution", "procedure": "The stationary phase is an XBridge Shield HPLC column (150 mm×3.0 mm, 3.5 μm particle size). For peak separation, gradient elution with a flow rate of 0.5 mL/min is chosen using a sodium dodecyl sulfate ion pair eluent (in water with phosphoric acid) as mobile phase A, and a sodium dodecyl sulfate ion pair eluent (in acetonitrile with 20% water and phosphoric acid) as mobile phase B. The applied gradient profile contains four steps running from 40% to 50% mobile phase B within 5 min, from 50% to 65% mobile phase B within 25 min and from 65% to 100% mobile phase B within another 5 min, followed by a 10 min isocratic phase at 100% mobile phase B. The column temperature is kept at 25° C. and the injection volume is 3.0 μL. […] (flow rate of 0.5 ml/min). […] The impurity was assayed at a wavelength of 210 nm and taken into account to determine the degradation products. The different aqueous solutions (0.05% copanlisib; after addition of 50% 2-propanol, [buffer solution filtered with 0.5 μm membrane filter]) were stored at 25° C. and 70° C. for 24 h and one week. An analytical HPLC-method has been developed to determine assay and organic impurities of copanlisib as well as degradation products."}, "[4]": {"conditions": "full analysis set, 60 mg I.V. on days 1, 8 and 15 of a 28-day cycle"}},
  "note": "Structures can show the parent of a compound that is named as a salt. Where two headings read alike, the source gives them in different places.",
  "data": [
    {"smiles": "COc1c(OCCCN2CCOCC2)ccc2c1N=C(NC(=O)c1cnc(N)nc1)N1CCN=C21", "note": "[copanlisib dihydrochloride, 2-amino-N-[7-methoxy-8-(3-morpholin-4-ylpropoxy)-2,3-dihydroimidazo[1,2-c]quinazolin-5-yl]pyrimidine-5-carboxamide dihydrochloride]", "values": [
      {"measurement": "Descriptive term (according to Ph. Eur./USP)", "setting": "0.1M Hydrochloric acid, 25° C.", "result": "freely soluble"},
      {"measurement": "Descriptive term (according to Ph. Eur./USP)", "setting": "Buffer (citrate) pH 3, 25° C.", "result": "freely soluble"},
      {"measurement": "Descriptive term (according to Ph. Eur./USP)", "setting": "Buffer (citrate) pH 4, 25° C.", "result": "soluble"},
      {"measurement": "Descriptive term (according to Ph. Eur./USP)", "setting": "Buffer (citrate) pH 5, 25° C.", "result": "very slightly soluble"},
      {"measurement": "Descriptive term (according to Ph. Eur./USP)", "setting": "Buffer (phosphate) pH 1, 25° C.", "result": "freely soluble"},
      {"measurement": "Descriptive term (according to Ph. Eur./USP)", "setting": "Buffer (phosphate) pH 2, 25° C.", "result": "freely soluble"},
      {"measurement": "Descriptive term (according to Ph. Eur./USP)", "setting": "Buffer (phosphate) pH 6, 25° C.", "result": "practically insoluble"},
      {"measurement": "Descriptive term (according to Ph. Eur./USP)", "setting": "Buffer (phosphate) pH 7, 25° C.", "result": "practically insoluble"},
      {"measurement": "Descriptive term (according to Ph. Eur./USP)", "setting": "Water, 25° C.", "result": "freely soluble"}
    ]},
    {"smiles": "COc1c(OCCCN2CCOCC2)ccc2c1N=C(NC(=O)c1cnc(N)nc1)N1CCN=C21", "note": "[copanlisib, 2-amino-N-[7-methoxy-8-(3-morpholin-4-ylpropoxy)-2,3-dihydroimidazo[1,2-c]quinazolin-5-yl]pyrimidine-5-carboxamide]", "values": [
      {"measurement": "Median overall survival", "setting": "[1]; at the time of primary analysis", "result": "had not yet been reached"},
      {"measurement": "KM-estimate of median PFS", "setting": "[1]; full analysis set (range 0-736)", "result": 340, "unit": "days"},
      {"measurement": "overall response rate (ORR)", "setting": "[1]; [4]", "result": 59.2, "unit": "%"},
      {"measurement": "partial response (PR)", "setting": "[1]; [4]", "result": 47.2, "unit": "%"},
      {"measurement": "progressive disease", "setting": "[1]; [4]", "result": "2.1 % of patients"},
      {"measurement": "stable disease", "setting": "[1]; [4]", "result": "29.6 % of patients"},
      {"measurement": "AE of interest: colitis", "setting": "[2]; all grade", "result": 0.7, "unit": "%"},
      {"measurement": "AE of interest: diarrhea", "setting": "[2]; all grade", "result": 18, "unit": "%"},
      {"measurement": "AE of interest: lung infection", "setting": "[2]; all grade", "result": 14, "unit": "%"},
      {"measurement": "AE of interest: neutropenia", "setting": "[2]; all grade", "result": 25, "unit": "%"},
      {"measurement": "AE of interest: pneumonitis", "setting": "[2]; all grade", "result": 7, "unit": "%"},
      {"measurement": "treatment-related AE: hypertension", "setting": "[2]; all grade", "result": 29, "unit": "%"},
      {"measurement": "treatment-related AE: transient hyperglycemia", "setting": "[2]; all grade", "result": 49, "unit": "%"},
      {"measurement": "Laboratory toxicity: alanine aminotransferase", "setting": "[2]; all-grade", "result": 23, "unit": "%"},
      {"measurement": "Laboratory toxicity: aspartate aminotransferase", "setting": "[2]; all-grade", "result": 28, "unit": "%"},
      {"measurement": "colonic perforations", "setting": "[2]; full analysis set", "result": "No colonic perforations occurred"},
      {"measurement": "deaths (number)", "setting": "[2]; full analysis set", "result": 6},
      {"measurement": "non-fatal opportunistic infections (number)", "setting": "[2]; full analysis set", "result": "two"},
      {"measurement": "AE of interest: colitis", "setting": "[2]; grade 3+", "result": 0.7, "unit": "%"},
      {"measurement": "AE of interest: diarrhea", "setting": "[2]; grade 3+", "result": 4, "unit": "%"},
      {"measurement": "AE of interest: lung infection", "setting": "[2]; grade 3+", "result": 11, "unit": "%"},
      {"measurement": "AE of interest: neutropenia", "setting": "[2]; grade 3+", "result": 19, "unit": "%"},
      {"measurement": "AE of interest: pneumonitis", "setting": "[2]; grade 3+", "result": 1.4, "unit": "%"},
      {"measurement": "treatment-related AE: hypertension", "setting": "[2]; grade 3+", "result": 23, "unit": "%"},
      {"measurement": "treatment-related AE: transient hyperglycemia", "setting": "[2]; grade 3+", "result": 40, "unit": "%"},
      {"measurement": "Laboratory toxicity: alanine aminotransferase", "setting": "[2]; grade-1", "result": 19, "unit": "%"},
      {"measurement": "Laboratory toxicity: aspartate aminotransferase", "setting": "[2]; grade-1", "result": 25, "unit": "%"},
      {"measurement": "deaths attributed to copanlisib (number)", "setting": "[2]; lung infection, respiratory failure, and a thromboembolic event", "result": 3},
      {"measurement": "Hydrolytic stability in words", "setting": "[3]", "result": "hydrolytic instability"}
    ]}
  ]
}
